# Read-outs that look alike come from different tables or passages of the source.
# Legend:
# CD8 human cells [1] = conditions: cited from earlier work; for Stimulatory grade, B: Khan et al. 2002 (ELISPOT): HLA A*0201
# CD8 human cells [2] = conditions: HLA A*0201; (pN) = peptide number in the source; cited from earlier work
# [3] = molecular target: T1, HLA A*0201 molecule on T2 cells (Homo sapiens, UniProt P04439, D140Y/D185E/D98H/E176V/E277Q/G131W/G231S/I119V/I121R/I166T/I218V/L300P/L318F/N151K/N90K/P208A/P217A/Q86G/Q94H/R138H/R169H/T345S); assay type: binding
# T1 construct: host or cells: T2 cells
# From the text: T2 cells, ATCC accession no. CRL-1992, are defective for endogenous class I presentation, but peptide binding to the MHC molecule stabilizes its expression on the cell surface. The stabilized MHC molecule can be detected by flow cytometry with a monoclonal antibody to the HLA A*0201 molecule. T2 cells express HLA A*0201 but not the HLA DR and are class II MHC antigen negative. […] A293 cells are human embryonic kidney cells. A293-IE1 is a stably transfected human kidney cell line endogenously expressing the CMV-IE1 protein. All cells used in experiments were mycoplasma-free and were maintained in RPMI-1640 supplemented with 10% FBS, penicillin-streptomycin and 2 mM glutamine.
# T2 cells are defective for endogenous class I presentation but the presence of peptide binding to the MHC molecule will stabilize its expression on the cell surface. The stabilized MHC molecule can be detected by flow cytometry using a monoclonal antibody to the HLA A-A*0201 molecule. Peptide sequences were selected using two algorithms for HLA peptide predicted motifs publicly available on the internet ([…] (Rammensee et al., Immunogenetics 50:213-219, 1999) and BIMAS).
# The peptides were assayed on T2 cells for their ability to bind and stabilize the A2 molecules on the cell surface according to methods described in Gricks et al., Cancer Res. 61:5145-5152, 2001, with modifications. […] The level of stabilized HLA-A2 on the surface of the T2 cells was determined according to known methods using monoclonal antibody BB7.2, which specifically recognizes HLA A*0201 as described in BenMohamed et al., Hum. Immunol. 61:764-779, 2000 and Parham et al., Hum. Immunol. 3:277-299, 1981 and a FITC-labeled goat anti-mouse F(ab′)2. Fluorescence was detected with a FACSCalibur™ flowcytometer. Numbers in the peak channel were compared to control T2 cells that contained HLA mismatch B7 peptide or no peptide.
# The results were expressed as fold increased fluorescence compared to the mean of no peptide and HLA mismatch B7 peptide.
# CD8 human cells [4] = test: Summary of stimulatory CMV IE1 HLA A*0201 restricted peptides, present report (Table I, A); assay type: cell-based
# From the text: These mutations may contribute to the low incidence of response to individual IE1 peptides. The locations of putative mutations are underlined. See Frankenberg et al., Virology 295: 208-216, 2002. Typically, the mutations that would most dramatically affect the binding of an epitope into the MHC molecule are situated at the anchor site, amino acid positions p2 and p9 of a peptide. See Falk et al., Semin. Immunol. 15:81-94, 1993; Zaia et al., J. Virol. 75:2472-2474, 2001. The only peptide showing a p2-p9 unstable mutation site is IE1-315, first described by Retiere (J. Virol. 74:3948-3952, 2000) using a TNF release assay. […] See Khan et al., J. Infect. Dis. 185:1025-1034, 2002. However IE1-316, which contains possible mutations at site p1 and p8, was more frequently recognized in this same study (6 out of 18) in an IFN-γ elispot assay. IE1-297, possibly mutated at p1 and p5, is a strong candidate for CMV immune recognition as well, since 3 of 4 patient PBLs responded in an ICC (intracellular cytokine) assay. Therefore, despite the presence of point mutation sites in IE1 epitopes, provided the anchor sites are intact, IE1-297 and IE1-316 peptides are presented by the MHC molecule after immunization with or exposure to CMV in HLA A*0201 subjects. In summary, IE1-297, IE1-316 and IE1-256 are peptides that stimulate CD8 human cells (Table I).
# CD8 cells = test: Intracellular cytokine (ICC) IFN-γ assay, fresh blood from CMV seropositive stem cell transplantation subjects; assay type: cell-based, human
# Protocol: Having identified IE1-297 peptide as an important epitope in the process of CTL response to CMV-IE1 immunization in A2 transgenic mice, this peptide was tested to determine if it was recognized by CD8 cells from CMV seropositive human subjects. Fresh whole blood samples were collected from four individuals susceptible to CMV reactivation 40, 120, 150 and 180 days after stem cell transplantation. Frozen white blood cells from the human subjects were stimulated for 6 hours with 100 μM IE1-297, pp65(p495) or HIV peptide (negative control) and PHA (positive control). The cells then were stained to detect CD8 and IFN-γ production. Four patient samples were analyzed by cytokine flow cytometry.
# [5] = tested on: CD8+ peripheral blood lymphocytes; test: ICC/IFN-γ assay, cryopreserved PBL of HLA-A2 HCT subjects; conditions: CMV reactivation
# Protocol: Five CMV seropositive HLA A2 human subjects showing CMV reactivation within 100 days post hematopoietic cell transplantation (HCT) and 6 CMV seropositive subjects without CMV reactivation were followed at days 40, 90, 120, 150, 180 and 360 post HCT. The intracellular IFN-γ response (ICC) to CMVpp65p495-503, CMV-IE1-256, IE1-297 and IE1-316 and the CD8 MHC/peptide binding (tetramer assay) using CMVpp65p495-503, IE1-297 and IE1-316 were analyzed in two groups.
# Eleven HLA A*0201 HCT recipients, at risk for CMV infection because of donor and/or recipient CMV-seropositivity, were enrolled in this study. The subjects included related sibling donors and recipients of allogeneic HCT for hematologic malignancies as well as HCT recipients of matched unrelated donor (MUD).
# Peripheral blood mononuclear cells (PBMC) from heparin-treated whole blood were isolated using Histopaque™-1077 density gradients, washed with 1× phosphate-buffered saline (PBS) and cryopreserved in aliquots of 3×10^6 to 5×10^6 cells/mL in 90% fetal bovine serum (FBS) and 10% dimethylsulfoxide. The plasma was collected by centrifugation, filtered through 0.45 μm Acrodisc™ filters and stored at −20° C. until DNA extraction.
# Donor samples (except for MUD subjects) were drawn before administration of granulocyte-colony stimulating factor (G-CSF) and later at the time of harvest. Recipient blood samples were collected at day 40, 90, 120, 150, 180 and 360 post-transplant for ICC and tetramer binding assays, and the CMV reactivation was monitored starting at day 21 post-HCT and twice weekly until day 100 using a shell vial assay and quantitative PCR.
# To evaluate the immune reactivity to CMV in HLA-A2 subjects, cryopreserved peripheral blood lymphocytes (PBL) from the subjects were stimulated with peptides derived from CMV-pp65 and CMV-IE1 proteins. […] The positive stimulation control contained phytohemagglutinin (PHA) and the negative control contained HIV peptide.
# After 1 hour incubation at 37° C. in 5% CO2, 1 μL (stock 5 mg/mL) of Brefeldin A, a cytokine secretion inhibitor, was added to the cells and further incubated overnight. Samples were then washed with 1×PBS and 0.5% bovine serum albumin and stained for 20 minutes in the dark with 5 μL of anti-CD8 antibody conjugated to streptavidin-phycoerythrin (CD8-PE). The cells were fixed and permeabilized for 20 minutes using the Cytofix/Cytoperm Kit™ (Pharmingen™) and stained for 30 minutes at 4° C. in the dark with 1 μL of anti-IFN-γ conjugated with streptavidin-allophycocyanin (APC).
# After purification, the peptides were dissolved in 10% DMSO/water to a concentration of 5 mM and used at a final concentration of 25 μM for T cell stimulation. […] The latter two peptides served as a positive and negative control, respectively.
# For FACS, patient cell samples were washed twice with 1× Cytofix™ Wash Solution for analysis by fluorescence-activated cell sorting using a FACScalibur™ instrument. The lymphocytes were gated based on forward and side scatter. A minimum of 50,000 events were analyzed per sample. The reported data are the values obtained after subtraction of background levels acquired with HIV peptide stimulation (which ranged from 0.0% to 0.5%).
# [6] = T2 cells, 100 μM peptide, 18 hours
# [7] = fluorescence compared to the mean of no peptide and HLA mismatch B7 peptide, 100 μM peptide
substance,measurement,setting,value
SLLSEFCRV (listed as Human cytomegalovirus) [IE1-303],"Stimulatory grade, B: Khan et al. 2002 (ELISPOT)",CD8 human cells [1],neg
same,"Stimulatory grade, C: Frankenberg et al. 2002 (IVS4)",CD8 human cells [2],(p9) poor
ILGADPLRV (listed as Human cytomegalovirus) [IE1-355],"Stimulatory grade, B: Khan et al. 2002 (ELISPOT)",CD8 human cells [1],neg
same,"Stimulatory grade, C: Frankenberg et al. 2002 (IVS4)",CD8 human cells [2],(p10) poor
TPRVTGGGAM [CMVB7-417],Fold Increase,[3],1 fold
same,peak channel,[3],232
VLAELVKQI (listed as Human cytomegalovirus) [IE1-81],peak channel,[3]; [6],495
same,Fold Increase,[3]; [7],2 fold
same,"Stimulatory grade, A: Present Report",CD8 human cells [4],neg
same,"Stimulatory grade, B: Khan et al. 2002 (ELISPOT)",CD8 human cells [1],neg
same,"Stimulatory grade, C: Frankenberg et al. 2002 (IVS4)",CD8 human cells [2],(p2) neg
LLSEFCRV (LLSEFCRVL; listed as Human cytomegalovirus) [IE1-304],peak channel,[3]; [6],433
same,Fold Increase,[3]; [7],1.8 fold
same,"Stimulatory grade, A: Present Report",CD8 human cells [4],neg
same,"Stimulatory grade, B: Khan et al. 2002 (ELISPOT)",CD8 human cells [1],neg
same,"Stimulatory grade, C: Frankenberg et al. 2002 (IVS4)",CD8 human cells [2],(p4) neg
YVLEETSVM (listed as Human cytomegalovirus) [IE1-315],subjects recognizing the peptide in IFN-γ elispot,"CD8 human cells [1]; out of 18 subjects, Khan et al.",one subject out of 18
phytohemagglutinin [PHA],% CD8+/IFN-γ,"CD8 cells; Patient No. 70, 150 days post-transplant",<33.15%
same,% CD8+/IFN-γ,"CD8 cells; Patient No. 70, 180 days post-transplant",19.2%
same,% CD8+/IFN-γ,"CD8 cells; Patient No. 93, 120 days post-transplant",37.6%
same,% CD8+/IFN-γ,"CD8 cells; Patient No. 100, 40 days post-transplant",2.09%
same,% CD8+/IFN-γ+ after peptide stimulation,"[5]; Subj. 54, Day 40 post-HCT",0.54%
same,% CD8+/IFN-γ+ after peptide stimulation,"[5]; Subj. 54, Day 90 post-HCT",5.34%
same,% CD8+/IFN-γ+ after peptide stimulation,"[5]; Subj. 54, Day 150 post-HCT",1.78%
same,% CD8+/IFN-γ+ after peptide stimulation,"[5]; Subj. 54, Day 180 post-HCT",4.27%
same,% CD8+/IFN-γ+ after peptide stimulation,"[5]; Subj. 54, Day 360 post-HCT",6.91%
same,% CD8+/IFN-γ+ after peptide stimulation,"[5]; Subj. 70(D) donor, postG",0.63%
same,% CD8+/IFN-γ+ after peptide stimulation,"[5]; Subj. 70(D) donor, preG",0.24%
same,% CD8+/IFN-γ+ after peptide stimulation,"[5]; Subj. 70, Day 40 post-HCT",0.64%
same,% CD8+/IFN-γ+ after peptide stimulation,"[5]; Subj. 70, Day 90 post-HCT",5.09%
same,% CD8+/IFN-γ+ after peptide stimulation,"[5]; Subj. 70, Day 120 post-HCT",4.01%
same,% CD8+/IFN-γ+ after peptide stimulation,"[5]; Subj. 70, Day 150 post-HCT",2.44%
same,% CD8+/IFN-γ+ after peptide stimulation,"[5]; Subj. 70, Day 180 post-HCT",2.88%
same,% CD8+/IFN-γ+ after peptide stimulation,"[5]; Subj. 70, Day 360 post-HCT",3.5%
same,% CD8+/IFN-γ+ after peptide stimulation,"[5]; Subj. 93(D) donor, postG",6.08%
same,% CD8+/IFN-γ+ after peptide stimulation,"[5]; Subj. 93(D) donor, preG",2.08%
same,% CD8+/IFN-γ+ after peptide stimulation,"[5]; Subj. 93, Day 40 post-HCT",6.32%
same,% CD8+/IFN-γ+ after peptide stimulation,"[5]; Subj. 93, Day 120 post-HCT",12.46%
same,% CD8+/IFN-γ+ after peptide stimulation,"[5]; Subj. 93, Day 150 post-HCT",21.01%
same,% CD8+/IFN-γ+ after peptide stimulation,"[5]; Subj. 93, Day 360 post-HCT",16.5%
same,% CD8+/IFN-γ+ after peptide stimulation,"[5]; Subj. 94, Day 40 post-HCT",23.17%
same,% CD8+/IFN-γ+ after peptide stimulation,"[5]; Subj. 94, Day 90 post-HCT",21.58%
same,% CD8+/IFN-γ+ after peptide stimulation,"[5]; Subj. 94, Day 120 post-HCT",14.53%
same,% CD8+/IFN-γ+ after peptide stimulation,"[5]; Subj. 94, Day 150 post-HCT",15.03%
same,% CD8+/IFN-γ+ after peptide stimulation,"[5]; Subj. 94, Day 180 post-HCT",29.1%
same,% CD8+/IFN-γ+ after peptide stimulation,"[5]; Subj. 94, Day 360 post-HCT",20.21%
same,% CD8+/IFN-γ+ after peptide stimulation,"[5]; Subj. 105(D) donor, postG",5.3%
same,% CD8+/IFN-γ+ after peptide stimulation,"[5]; Subj. 105, Day 40 post-HCT",11.56%
same,% CD8+/IFN-γ+ after peptide stimulation,"[5]; Subj. 105, Day 90 post-HCT",40.76%
same,% CD8+/IFN-γ+ after peptide stimulation,"[5]; Subj. 105, Day 120 post-HCT",29.38%
same,% CD8+/IFN-γ+ after peptide stimulation,"[5]; Subj. 105, Day 150 post-HCT",26.14%
RPHERNGFTVL (listed as Human cytomegalovirus) [CMVB7-265],peak channel,[3]; [6],261
same,Fold Increase,[3]; [7],1 fold
